Measured values reported in patent US11103504B2, “Combination of a DNA condensation-inducing compound and an Eis inhibitor for antibiotic treatment” (priority 2018, dated 2021).

Tests used:
[1] = test system: M. smegmatis mc^2155; experiment: DNA localization / DNA-condensation by fluorescence microscopy; type: cell-based, Mycobacterium smegmatis
[2] = test system: M. smegmatis mc^2155; experiment: Transmission electron microscopy of ultrathin sections; type: cell-based, Mycobacterium smegmatis; conditions: FA treated, early log phase
[3] = test system: M. smegmatis mc^23449 SMC triple deletion mutant; type: cell-based, Mycobacterium smegmatis; conditions: FA 1 hour, FIGS. 6A-B
[4] = test system: M. smegmatis mc^2155; experiment: Monitoring mycobacterial survival (OD600, CFU); type: cell-based, Mycobacterium smegmatis; conditions: combination of fusidic acid and Eis inhibition
Procedure: M. smegmatis mc^2155 overnight cultures were treated with FA, EIS inhibitor 1a*, or a combination hereof. Cultures were treated with antibiotic for 1 hour before second antibiotic was administered. Before treatment, and after 2 hours and at day 1,2,3 and 6, the OD600 was determined with a spectrophotometer, and a sample of the culture was fixed, or plated in a dilution series on 7H10 plates in triplo. At day 2, the antibiotic treatment was repeated. At least 3 independent experiments were quantified per condition.
In all experiments, factor correction was applied to remove systematic differences between the different measuring sessions needed to obtain the results. In case of 2 experimental conditions, Student's t-test was applied. […] To further dissect these effects, a 1-way ANOVA per time point was performed.

[5] = test system: M. smegmatis mc^2 155; experiment: DNA volume quantification (deconvolved wide-field FM); type: cell-based, Mycobacterium smegmatis; conditions: incubated with FA for 1 hour, FIG. 5B
Procedure: Z-stack Wide-field FM images of fixed M. smegmatis mc^2 155 stained for DNA and lipids were collected at 200 nm increments. Deconvolution and DNA volume quantification was subsequently performed using standard deconvolution parameters of Huygens Professional software (Scientific Volume Imaging, SVI, Hilversum, The Netherlands). Average volume was determined for 60 bacteria per condition per experiment and standard deviation was calculated with 2-tailed T-test.

[6] = test system: M. smegmatis; experiment: Live cell imaging with bacterial viability staining; type: cell-based, Mycobacterium smegmatis; conditions: live-cell imaging started 5 minutes after FA addition
[7] = test system: M. tuberculosis mc^26030; type: cell-based, Mycobacterium tuberculosis; conditions: 1 hour after FA treatment vs untreated
[8] = test system: M. tuberculosis mc^26030; experiment: DNA-condensation incidence by fluorescence microscopy; type: cell-based, Mycobacterium tuberculosis; conditions: for fraction of bacilli with condensed DNA: 20 times the MIC50, 1 hour, vs control, P<0.05, FIG. 2D; for induction of condensation of the DNA: summary statement

CC(=O)O[C@H]1C[C@@]2(C)[C@@H](C[C@@H](O)[C@H]3[C@@]4(C)CC[C@@H](O)[C@@H](C)[C@@H]4CC[C@@]32C)/C1=C(\CCC=C(C)C)C(=O)O [fusidic acid]
DNA distribution after 2 days ([1]; 2 days of incubation, first agent 1 hour before second): still displayed condensed DNA
bacteria that condensed their nucleoid ([1]; after 1 hour of antibiotic stress, FIG. 2C): more than 80%
bacteria that condensed their DNA into a single nucleoid after FA treatment ([1]; early log phase, FIG. 2A): more than 90%
ultrastructural DNA localization (TEM) [2]: bundles of DNA were localized in a single compact nucleoid
DNA condensation after FA treatment in SMC triple knock out [3]: clearly visible
potentiation of efficacy by the combination [4]: 10 fold
average 3D volume of the DNA clusters [5]: 0.24 μm^3
time until first bacteria converted from viable to inviable [6]: 16 min
percentage of nonviable bacteria with condensed DNA [7]: did not differ
percentage of viable bacteria with condensed DNA [7]: increased significantly
incidence of DNA-condensation after wash-out (reversibility) [8]: increased until 6 hours after treatment, followed by a gradual reduction
fraction of bacilli with condensed DNA [8]: increased the percentage bacteria with condensed DNA significantly
DNA localization after FA treatment ([8]; same experimental conditions as M. smegmatis, FIG. 2B): condensed their DNA into a single nucleoid
induction of condensation of the DNA [8]: can induce condensation of the DNA

NNC(=O)c1ccncc1 [isoniazid]
induction of condensation of the DNA [8]: can induce condensation of the DNA

CC(=O)NC[C@H]1CN(c2ccc(N3CCOCC3)c(F)c2)C(=O)O1 [linezolid]
induction of condensation of the DNA [8]: can induce condensation of the DNA

CCn1cc(C(=O)O)c(=O)c2ccc(C)nc21 [nalidixic acid]
fraction of bacilli with condensed DNA [8]: increased the percentage bacteria with condensed DNA significantly
induction of condensation of the DNA [8]: can induce condensation of the DNA

[H]/N=C(/N)N[C@H]1[C@H](O)[C@@H](O)[C@H](O[C@@H]2O[C@@H](C)[C@](O)(C=O)[C@H]2O[C@@H]2O[C@@H](CO)[C@H](O)[C@@H](O)[C@@H]2NC)[C@@H](N/C(N)=N\[H])[C@@H]1O [streptomycin]
fraction of bacilli with condensed DNA [8]: increased the percentage bacteria with condensed DNA significantly
induction of condensation of the DNA [8]: can induce condensation of the DNA
